Article PMC6917776, “Discovery of a chemical probe for PRDM9” (Nature Communications, 2019)
Values joined by “and” are separate entries in the source; they are usually repeats but may differ in a detail not shown here. Equal entries are not always repeated. “Also recorded” adds a separate entry of the source. Where two headings read alike, the source gives them in different places.

Columns and labels:
DOT1L = target: T1, DOT1L (Homo sapiens, UniProt Q8TEK3); experiment: Methyltransferase selectivity assay (filter-based, nucleosome substrate); type: biochemical
T1 construct: purchased Structural Genomics Consortium (SGC Toronto) in-house methyltransferase panel
T1 sequence (Q8TEK3 whole entry): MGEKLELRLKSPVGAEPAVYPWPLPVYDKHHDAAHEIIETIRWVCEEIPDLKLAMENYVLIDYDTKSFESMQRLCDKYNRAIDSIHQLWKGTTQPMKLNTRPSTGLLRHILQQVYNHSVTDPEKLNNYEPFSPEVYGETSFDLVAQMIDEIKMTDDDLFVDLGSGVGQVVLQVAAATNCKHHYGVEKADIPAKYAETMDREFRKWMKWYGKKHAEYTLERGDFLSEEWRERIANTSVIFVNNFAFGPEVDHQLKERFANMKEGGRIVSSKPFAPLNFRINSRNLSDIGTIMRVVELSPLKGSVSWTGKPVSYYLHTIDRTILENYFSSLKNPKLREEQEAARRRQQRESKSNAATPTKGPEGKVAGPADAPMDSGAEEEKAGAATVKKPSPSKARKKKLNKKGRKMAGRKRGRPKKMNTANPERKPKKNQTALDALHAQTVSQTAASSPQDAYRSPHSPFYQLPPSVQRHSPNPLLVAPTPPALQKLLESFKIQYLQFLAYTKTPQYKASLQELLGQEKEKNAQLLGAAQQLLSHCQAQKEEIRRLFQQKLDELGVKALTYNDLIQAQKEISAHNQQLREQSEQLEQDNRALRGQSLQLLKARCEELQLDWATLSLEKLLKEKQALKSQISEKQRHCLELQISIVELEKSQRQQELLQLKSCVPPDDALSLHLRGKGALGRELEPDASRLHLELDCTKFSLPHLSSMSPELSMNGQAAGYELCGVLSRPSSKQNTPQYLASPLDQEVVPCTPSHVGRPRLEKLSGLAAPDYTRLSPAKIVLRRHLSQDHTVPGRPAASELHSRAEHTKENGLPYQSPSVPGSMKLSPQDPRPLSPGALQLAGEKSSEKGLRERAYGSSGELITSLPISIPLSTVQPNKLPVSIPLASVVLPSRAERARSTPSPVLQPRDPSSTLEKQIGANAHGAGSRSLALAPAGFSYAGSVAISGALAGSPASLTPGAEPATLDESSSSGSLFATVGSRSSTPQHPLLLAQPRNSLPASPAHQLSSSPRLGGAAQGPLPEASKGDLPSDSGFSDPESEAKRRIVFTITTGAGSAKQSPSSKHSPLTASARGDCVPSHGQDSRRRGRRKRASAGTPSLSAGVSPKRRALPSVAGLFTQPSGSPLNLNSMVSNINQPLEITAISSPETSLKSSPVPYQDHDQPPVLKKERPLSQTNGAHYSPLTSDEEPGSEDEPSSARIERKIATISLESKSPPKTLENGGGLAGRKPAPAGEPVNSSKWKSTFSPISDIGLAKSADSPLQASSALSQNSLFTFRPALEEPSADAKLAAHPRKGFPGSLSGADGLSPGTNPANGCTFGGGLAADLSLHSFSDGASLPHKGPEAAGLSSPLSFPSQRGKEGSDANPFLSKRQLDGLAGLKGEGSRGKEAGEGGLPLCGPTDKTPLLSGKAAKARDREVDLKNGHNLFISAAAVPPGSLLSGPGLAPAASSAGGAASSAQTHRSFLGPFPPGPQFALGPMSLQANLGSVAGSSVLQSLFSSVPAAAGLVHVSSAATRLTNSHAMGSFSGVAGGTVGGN
Experimental: Selectivity against methyltransferases were determined as described previously. Details of the assays are described in the supplementary methods.
Methyltransferase selectivity assay1
The effect of chemical probes and negative controls on the methyltransferase activities of protein, DNA and RNA methyltransferases was tested by radiometric assays using 3H-SAM. […]
The CPM in the absence of compound or enzyme was defined as 100% activity and background (0%), respectively, for each dataset. […]
For proteins which were tested with nucleosome as substrate such as DOT1L, NSD1, NSD2, NSD3, and ASH1L, or unbiotinylated Poly(2′-deoxyinosinic-2′-deoxycytidylic acid) (Cat# 81349-500UG, Sigma Aldrich) such as DNMT3A/3L, and DNMT3B/3L, a filter-based assay was used. In this assay, a trichloroacetic acid (TCA) protein precipitation protocol was employed. A 10 µL reaction mixture was incubated at 23°C for 1 h, followed by addition of 50 µL of 10% TCA. The mixture was transferred to filter plates (Millipore, Billerica, MA, USA) that were centrifuged at 2000 rpm (Allegra X-15R; Beckman Coulter, Brea, CA, USA) for 2 min. Samples were washed twice with 10% TCA and once with ethanol (180 µL), and centrifuged. After drying, 100 µL MicroScint-O (Perkin Elmer) was added to each well and the plates were centrifuged to remove the liquid. A 70 µL volume of MicroScint-O was added and the CPM was measured with a TopCount plate reader.

spermatocytes = experiment: Testis microinjection, meiotic chromosome spreads (SYCP1/SYCP3 staining); type: in vivo, mouse; details: wild type mice, 2 µl of 1 µM into both testes at P12, analysed at P15
Experimental: Supplementary Figure 14. Comparison of meiotic progression in the presence of MRK -740-NC and MRK-740 treated spermatocytes. Representative images of meiotic chromosome […]
(c) untreated Prdm9-/- mice are presented. At p12, mice were treated with either MRK -740-NC or MRK-740 or received no treatment. Immunofluoresence co -staining was performed with SYCP1 (green) and SYCP3 (magenta) antibodies to visualize the formation of the synaptonemal […]
mice treated with MRK-740-NC.
(1 picture or pasted object on this page, not shown here) […]
Transgenic mouse lines used in this study
Prdm9KO 2, mice have been described and were maintained on a C57BL/6 background. Mice were housed under standard conditions, were maintained on a 12- hour light/dark cycle, were fed a standard chow diet containing 6% crude fat, and were treated in compliance with the institutional guidelines for animal care and use. All experimental protocols were approved by the Animal Care and Use Committee of Biological Resource Centre at Biopolis, A*STAR, […]
Testis microinjection protocol
Seminiferous tubule microinjection was performed as previously described 3,4. At postnatal day 12 (P12) A small incision was made in the abdomen of the mouse and testes were exposed by pulling the abdominal fat pad. Testis were injected using a micro-capillary pipette injector (made in-house). […]

HEK293T cells = experiment: Cell growth, IncuCyte ZOOM cell number; type: cell-based; details: for HEK293T cell growth, toxicity (in words): 24 h of treatment; for HEK293T cytotoxicity (in words): 4 days of treatment; for Cell growth (Cell#): technical replicates
Experimental: HEK293T or MCF7 cells were seeded on 96-well plates and the following day treated with compounds for indicated time. Cell number was determined with Vybrant® DyeCycle™ Green using IncuCyte™ ZOOM live cell imaging device (Essen Bioscence) and analyzed with IncuCyte™ ZOOM (2015A) software.
(top graphs) and MCF7 cells (bottom graph). Cells were treated with compounds for 2 and 4 days or 5 days in case of MCF7. Cell number was measured using IncuCyte™ ZOOM live cell imaging device. The results are MEAN +/- SEM, n=3 (technical replicates). Source data are provided as a Source Data file.
(1 picture or pasted object on this page, not shown here)

[1] = HEK293, 2 day treatement, 10 µM
[2] = HEK293, 4 day treatement, 0.3 µM
[3] = HEK293, 4 day treatement, 10 µM

| SMILES | activity at 1 µM (DOT1L; 1µM compound, Exp1, Exp2) [%] | Activity % (DOT1L; 1µM compound, Exp1, Exp2, 1 µM) [%] | activity at 10 µM (DOT1L; 10µM compound, Exp1, Exp2) [%] | Activity % (DOT1L; 10µM compound, Exp1, Exp2, 10 µM) [%] | Meiotic phenotype of spermatocytes, pachytene stage (in words) (spermatocytes) | HEK293T cell growth, toxicity (in words) (HEK293T cells; 10 µM) | HEK293T cytotoxicity (in words) (HEK293T cells; 10 µM) | Cell growth (Cell#) (HEK293T cells; HEK293, 2 day treatement, 1 µM) | Cell growth (Cell#) (HEK293T cells; HEK293, 2 day treatement, 3 µM) | Cell growth (Cell#) (HEK293T cells; HEK293, 2 day treatement, 5 µM) | Cell growth (Cell#) (HEK293T cells; [1]) | Cell growth (Cell#) (HEK293T cells; [2]) | Cell growth (Cell#) (HEK293T cells; HEK293, 4 day treatement, 1 µM) | Cell growth (Cell#) (HEK293T cells; HEK293, 4 day treatement, 3 µM) | Cell growth (Cell#) (HEK293T cells; [3]) | activity at 1 µM (DOT1L; 1µM compound, Exp1, Exp2, read-out: Activity %) [%] | activity at 10 µM (DOT1L; 10µM compound, Exp1, Exp2, read-out: Activity %) [%] |
| --- | --- | --- | --- | --- | --- | --- | --- | --- | --- | --- | --- | --- | --- | --- | --- | --- | --- |
| COc1cc(OC)cc(-c2noc(N3CCN(C)C4(CCN(c5ccccc5)CC4)C3)n2)c1 [MRK-740 -NC] | 104 | 102 | 100 | 99 |  |  |  |  |  |  |  |  |  |  |  |  |  |
| COc1cc(OC)cc(-c2noc(N3CCN(C)C4(CCN(c5ccccc5)CC4)C3)n2)c1 [MRK-740-NC] |  |  |  |  | Normal synaptonemal complex formation; also recorded: no overt meiotic defects | some toxicity | cytotoxicity was observed | 131.284 % control and 117.713 % control and 90.9177 % control | 132.069 % control and 120.302 % control and 91.1588 % control | 115.543 % control and 108.951 % control and 80.3231 % control | 46.5996 % control and 35.6574 % control and 30.4049 % control | 101.286 % control and 102.18 % control and 103.656 % control | 105.145 % control and 104.341 % control and 101.342 % control | 105.432 % control and 102.893 % control and 103.306 % control | 42.1082 % control and 39.7636 % control and 39.5419 % control |  |  |
| COc1cc(OC)cc(-c2noc(N3CCN(C)C4(CCN(c5ccnc(C)c5)CC4)C3)n2)c1 [MRK-740] |  | 100 |  |  | Abnormal synaptonemal complex formation; also recorded: meiotic defects including non-homologous synapsis or failed pairing of chromosomal homologs | some toxicity | cytotoxicity was observed | 84.8973 % control and 124.131 % control and 116.53 % control | 73.843 % control and 124.215 % control and 124.008 % control | 68.7811 % control and 110.358 % control and 122.96 % control | 55.0249 % control and 90.6823 % control and 84.1686 % control | 115.326 % control and 111.309 % control and 103.491 % control | 115.93 % control and 116.134 % control and 111.504 % control | 115.346 % control and 109.669 % control and 118.771 % control | 47.3939 % control and 45.1607 % control and 39.6851 % control | 98 | 97 |
